Data on 23 compounds can be found in US10336761B2, “TGFβ receptor antagonist” (BRISTOL-MYERS SQUIBB COMPANY, priority 2015, dated 2019).

In general, IC50 refers to the concentration that gives 50% inhibition.

For the experiment, the target named is HIS-TGFβR1 T204D (Homo sapiens (Human), UniProt P36897, T204D). Briefly: HTRF probe-displacement assay, HIS-TGFβR1 T204D. The class given is binding. To be noted: 1 hour at room temperature.
Chain of HIS-TGFβR1 T204D (P36897 34-503 T204D): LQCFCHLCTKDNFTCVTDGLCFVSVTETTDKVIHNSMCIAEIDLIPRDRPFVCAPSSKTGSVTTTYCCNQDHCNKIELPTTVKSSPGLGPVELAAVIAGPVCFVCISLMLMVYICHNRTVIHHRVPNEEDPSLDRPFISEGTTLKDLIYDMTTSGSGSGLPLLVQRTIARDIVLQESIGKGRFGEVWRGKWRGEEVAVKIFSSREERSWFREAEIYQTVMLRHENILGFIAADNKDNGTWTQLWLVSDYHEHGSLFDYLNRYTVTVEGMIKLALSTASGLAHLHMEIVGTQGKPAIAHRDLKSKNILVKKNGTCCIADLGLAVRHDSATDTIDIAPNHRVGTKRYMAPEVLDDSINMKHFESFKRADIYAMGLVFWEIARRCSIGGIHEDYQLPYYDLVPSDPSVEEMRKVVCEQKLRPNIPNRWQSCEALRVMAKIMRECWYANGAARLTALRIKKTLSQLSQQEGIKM
On to `COc1cccc(-c2nc(Nc3ccncc3F)c3c(CNC[C@@H](F)C(C)(C)O)ccn3n2)n1` [Example 120, (3R)-3-fluoro-4-[({4-[(3-fluoropyridin-4-yl)amino]-2-(6-methoxypyridin-2-yl)pyrrolo[2,1-f][1,2,4]triazin-5-yl}methyl)amino]-2-methylbutan-2-ol], for which the IC50 turned out to be 98 nM. The result for `COc1cccc(-c2nc(Nc3ccncc3F)c3c(CN4CCN(C)CC4)ccn3n2)n1` [Example 121, 3-fluoro-N-[2-(6-methoxypyridin-2-yl)-5-[(4-methylpiperazin-1-yl)methyl]pyrrolo[2,1-f][1,2,4]triazin-4-yl]pyridin-4-amine] reads 22 nM. The result for `Fc1cnccc1Nc1nc(-c2cccc(C(F)(F)F)n2)nn2ccc(CN3CCC(F)(F)CC3)c12` [Example 123, N-{5-[(4,4-difluoropiperidin-1-yl)methyl]-2-[6-(trifluoromethyl)pyridin-2-yl]pyrrolo[2,1-f][1,2,4]triazin-4-yl}-3-fluoropyridin-4-amine] reads 13 nM; that for `CC(C)(O)CNCc1ccn2nc(-c3cccc(C(F)(F)F)n3)nc(Nc3ccncc3F)c12` [Example 124, 1-[({4-[(3-fluoropyridin-4-yl)amino]-2-[6-(trifluoromethyl)pyridin-2-yl]pyrrolo[2,1-f][1,2,4]triazin-5-yl}methyl)amino]-2-methylpropan-2-ol], 6 nM. Regarding `CC(C)(O)CNCc1ccn2nc(-c3ccccn3)nc(Nc3ccncc3F)c12` [Example 125, 1-[({4-[(3-fluoropyridin-4-yl)amino]-2-(pyridin-2-yl)pyrrolo[2,1-f][1,2,4]triazin-5-yl}methyl)amino]-2-methylpropan-2-ol], the IC50 was 1.6 nM.

Regarding `CN1CCN(Cc2ccn3nc(-c4ccccn4)nc(Nc4ccncc4F)c23)CC1` [Example 127, 3-fluoro-N-{5-[(4-methylpiperazin-1-yl)methyl]-2-(pyridin-2-yl)pyrrolo[2,1-f][1,2,4]triazin-4-yl}pyridin-4-amine], the IC50 was found to be 9.1 nM. The result for `COc1cccc(-c2nc(Nc3ccncc3F)c3c(C(O)CN4CCN(C)CC4)ccn3n2)n1` (centres unmarked) [Example 128, 1-{4-[(3-fluoropyridin-4-yl)amino]-2-(6-methoxypyridin-2-yl)pyrrolo[2,1-f][1,2,4]triazin-5-yl}-2-(4-methylpiperazin-1-yl)ethan-1-ol] reads 950 nM. The result for `COc1cccc(-c2nc(Nc3ccncc3F)c3c(C(O)CN4CCC(F)(F)CC4)ccn3n2)n1` (centres unmarked) [Example 129, 2-(4,4-difluoropiperidin-1-yl)-1-{4-[(3-fluoropyridin-4-yl)amino]-2-(6-methoxypyridin-2-yl)pyrrolo[2,1-f][1,2,4]triazin-5-yl}ethan-1-ol] reads 38 nM. The result for `COc1cccc(-c2nc(Nc3ccncc3F)c3c(C(O)CNCCN4CCCCC4)ccn3n2)n1` (centres unmarked) [Example 130, 1-{4-[(3-fluoropyridin-4-yl)amino]-2-(6-methoxypyridin-2-yl)pyrrolo[2,1-f][1,2,4]triazin-5-yl}-2-{[2-(piperidin-1-yl)ethyl]amino}ethan-1-ol] reads 540 nM; that for `COc1cccc(-c2nc(Nc3ccncc3F)c3c(C(O)CNCCN4CCS(=O)(=O)CC4)ccn3n2)n1` (centres unmarked) [Example 131, 4-{2-[(2-{4-[(3-fluoropyridin-4-yl)amino]-2-(6-methoxypyridin-2-yl)pyrrolo[2,1-f][1,2,4]triazin-5-yl}-2-hydroxyethyl)amino]ethyl}-1,4-thiomorpholine-1,1-dione], 56 nM.

Consider `COc1cccc(-c2nc(Nc3ccnc(NCCN4CCC(O)CC4)c3)c3cccn3n2)n1` [Example 132, 1-{2-[(4-{[2-(6-methoxypyridin-2-yl)pyrrolo[2,1-f][1,2,4]triazin-4-yl]amino}pyridin-2-yl)amino]ethyl}piperidin-4-ol], for which the IC50 is 700 nM. The result for `COc1cccc(-c2nc(Nc3ccnc(NCC(C)(C)O)c3)c3cccn3n2)n1` [Example 133, 1-[(4-{[2-(6-methoxypyridin-2-yl)pyrrolo[2,1-f][1,2,4]triazin-4-yl]amino}pyridin-2-yl)amino]-2-methylpropan-2-ol] reads 3300 nM; that for `COc1cccc(-c2nc(Nc3ccnc(NCCC(C)(C)O)c3)c3cccn3n2)n1` [Example 134, 4-[(4-{[2-(6-methoxypyridin-2-yl)pyrrolo[2,1-f][1,2,4]triazin-4-yl]amino}pyridin-2-yl)amino]-2-methylbutan-2-ol], 360 nM; that for `COc1cccc(-c2nc(Nc3ccnc(NCCCN(C)C)c3)c3cccn3n2)n1` [Example 135, 2-N-[3-(dimethylamino)propyl]-4-N-[2-(6-methoxypyridin-2-yl)pyrrolo[2,1-f][1,2,4]triazin-4-yl]pyridine-2,4-diamine], 88 nM. The result for `COc1cccc(-c2nc(Nc3ccnc(NCCN4CCC(O)CC4)c3)c3c(C)ccn3n2)n1` [Example 136, 1-{2-[(4-{[2-(6-methoxypyridin-2-yl)-5-methylpyrrolo[2,1-f][1,2,4]triazin-4-yl]amino}pyridin-2-yl)amino]ethyl}piperidin-4-ol] reads 720 nM. With `COc1cccc(-c2nc(Nc3ccnc(NCCN4CCOCC4)c3)c3c(C)ccn3n2)n1` [Example 137, 4-N-[2-(6-methoxypyridin-2-yl)-5-methylpyrrolo[2,1-f][1,2,4]triazin-4-yl]-2-N-[2-(morpholin-4-yl)ethyl]pyridine-2,4-diamine] the figure was 120 nM; with `COc1cccc(-c2nc(Nc3ccnc(NCC(C)(C)O)c3)c3c(C)ccn3n2)n1` [Example 138, 1-[(4-{[2-(6-methoxypyridin-2-yl)-5-methylpyrrolo[2,1-f][1,2,4]triazin-4-yl]amino}pyridin-2-yl)amino]-2-methylpropan-2-ol], 6600 nM. Consider `COc1cccc(-c2nc(Nc3ccnc(NCCN4CCOCC4)c3)c3cccn3n2)n1` [Example 139, 4-N-[2-(6-methoxypyridin-2-yl)pyrrolo[2,1-f][1,2,4]triazin-4-yl]-2-N-[2-(morpholin-4-yl)ethyl]pyridine-2,4-diamine], for which the IC50 came out at 190 nM. With `Cc1nc(-c2nc(Nc3ccncc3C(=O)NCCN3CCCCC3)c3cccn3n2)ccc1F` [Example 141, 4-{[2-(5-fluoro-6-methylpyridin-2-yl)pyrrolo[2,1-f][1,2,4]triazin-4-yl]amino}-N-[2-(piperidin-1-yl)ethyl]pyridine-3-carboxamide] the figure was 5 nM; with `O=C(NCCN1CCCC1)c1cnccc1Nc1nc(-c2ccccn2)nn2cccc12` [Example 142], 19 nM. `CCN(CC)CCNC(=O)c1cnccc1Nc1nc(-c2ccccn2)nn2cccc12` [Example 143, N-[2-(diethylamino)ethyl]-4-{[2-(pyridin-2-yl)pyrrolo[2,1-f][1,2,4]triazin-4-yl]amino}pyridine-3-carboxamide] returned an IC50 of 19 nM.

Turning to `O=C(NCCN1CCCCC1)c1cnccc1Nc1nc(-c2ccccn2)nn2cccc12` [Example 144, N-[2-(piperidin-1-yl)ethyl]-4-{[2-(pyridin-2-yl)pyrrolo[2,1-f][1,2,4]triazin-4-yl]amino}pyridine-3-carboxamide], the half-inhibitory concentration (IC50) was 25 nM. In turn, `CC(C)(C)OC(=O)N1CCN(CCNC(=O)c2cnccc2Nc2nc(-c3ccccn3)nn3cccc23)CC1` [Example 145, tert-butyl 4-{2-[(4-{[2-(pyridin-2-yl)pyrrolo[2,1-f][1,2,4]triazin-4-yl]amino}pyridin-3-yl)formamido]ethyl}piperazine-1-carboxylate] gave an IC50 of 210 nM.
